SMILES strings stand for the structures.

`Cc1cc(-c2ccc(C(F)(F)F)cc2)cc(-c2cccc(-c3cncc(S(=O)(=O)NC(C)(C)CO)c3)c2)n1` [Example 257, 5-{3-[6-Methyl-4-(4-trifluoromethyl-phenyl)-pyridin-2-yl]-phenyl}-pyridine-3-sulfonic acid (2-hydroxy-1,1-dimethyl-ethyl)-amide]: the melting point (in general, the temperature of the solid-liquid transition) was 105 °C (dec.).
As for `CONS(=O)(=O)c1cccc(-c2cccc(-c3cc(-c4ccc(C(F)(F)F)cc4)cc(C)n3)c2)c1` [Example 258, 3′-[6-Methyl-4-(4-trifluoromethyl-phenyl)-pyridin-2-yl]-biphenyl-3-sulfonic acid methoxy-amide], the figure is 181 °C.
On to `CCc1cc(-c2ccc(C(F)(F)F)cc2)cc(-c2cccc(-c3cnc(N)nc3)c2)n1` [Example 260, 5-{3-[6-Ethyl-4-(4-trifluoromethyl-phenyl)-pyridin-2-yl]-phenyl}-pyrimidin-2-ylamine], for which the melting point was 209 °C.
`Cc1cc(-c2ccc(C(F)(F)F)cc2)cc(-c2cccc(-c3cccc(S(=O)(=O)NC(C)(C)C)c3)n2)n1` [Example 261, N-tert-Butyl-3-[6′-methyl-4′-(4-trifluoromethyl-phenyl)-[2,2′]bipyridinyl-6-yl]-benzenesulfonamide]: the melting point was 183 °C.
As for `Cc1cc(-c2ccc(C(F)(F)F)cc2)cc(-c2ccnc(-c3cccc(S(=O)(=O)NC(C)(C)C)c3)n2)n1` [Example 262, N-tert-Butyl-3-{4-[6-methyl-4-(4-trifluoromethyl-phenyl)-pyridin-2-yl]-pyrimidin-2-yl}-benzenesulfonamide], the figure is 218 °C; as for `Cc1cc(-c2ccc(C(F)(F)F)cc2)cc(-c2nc(-c3cccc(S(=O)(=O)NC(C)(C)C)c3)cs2)n1` [Example 263, N-tert-Butyl-3-{2-[6-methyl-4-(4-trifluoromethyl-phenyl)-pyridin-2-yl]-thiazol-4-yl}-benzenesulfonamide], 196 °C.
`CCc1cc(-c2ccc(C(F)(F)F)cc2)cc(-c2cccc(-c3ccc(N)nc3)c2)n1` [Example 264, 5-{3-[6-Ethyl-4-(4-trifluoromethyl-phenyl)-pyridin-2-yl]-phenyl}-pyridin-2-ylamine] registered a melting point of 74 °C.
Turning to `CCc1cc(-c2ccc(C(F)(F)F)cc2)cc(-c2cccc(-c3cccc(S(=O)(=O)NC(C)(C)C)c3)c2)n1` [Example 265, 3′-[6-Ethyl-4-(4-trifluoromethyl-phenyl)-pyridin-2-yl]-biphenyl-3-sulfonic acid tert-butylamide], the melting point was found to be 169 °C.
As to `Cc1cc(-c2ccc(C(F)(F)F)cc2)nc(-c2cccc(-c3ccc(S(N)(=O)=O)s3)c2)c1` [Example 273, 5-{3-[4-Methyl-6-(4-trifluoromethyl-phenyl)-pyridin-2-yl]-phenyl}-thiophene-2-sulfonic acid amide], the melting point stood at 211 °C.
As to `Cc1cc(-c2ccc3c(c2)OCO3)cc(-c2cccc(-c3ccc(N)nc3)c2)n1` [Example 276, 5-[3-(4-Benzo[1,3]dioxol-5-yl-6-methyl-pyridin-2-yl)-phenyl]-pyridin-2-ylamine], the melting point turned out to be 203 °C.
On to `CC(C)(C)NS(=O)(=O)c1cnc(-c2cn(-c3cc(C(F)(F)F)cc(-c4ccc(C(F)(F)F)cc4)n3)cn2)s1` [Example 281, 2-{1-[4-Trifluoromethyl-6-(4-trifluoromethyl-phenyl)-pyridin-2-yl]-1H-imidazol-4-yl}-thiazole-5-sulfonic acid tert-butylamide], for which the melting point worked out at 236 °C.
In the case of `NS(=O)(=O)c1cccc(-c2cn(-c3cc(C(F)(F)F)cc(-c4ccc(C(F)(F)F)cc4)n3)cn2)c1` [Example 283, 3-{1-[4-Trifluoromethyl-6-(4-trifluoromethyl-phenyl)-pyridin-2-yl]-1H-imidazol-4-yl}-benzenesulfonamide], the melting point was greater than 266 °C.
As for `NS(=O)(=O)c1cnc(-c2cn(-c3cc(C(F)(F)F)cc(-c4ccc(C(F)(F)F)cc4)n3)cn2)s1` [Example 284, 2-{1-[4-Trifluoromethyl-6-(4-trifluoromethyl-phenyl)-pyridin-2-yl]-1H-imidazol-4-yl}-thiazole-5-sulfonic acid amide], the figure is greater than 266 °C; as for `CC(C)(C)NS(=O)(=O)c1cccc(-c2cc(-c3cc(C(F)(F)F)cc(-c4ccc(C(F)(F)F)cc4)n3)ccn2)c1` [Example 285, N-tert-Butyl-3-[4-trifluoromethyl-6-(4-trifluoromethyl-phenyl)-[2,4′]bipyridinyl-2′-yl]-benzenesulfonamide], 196 °C.
On to `NS(=O)(=O)c1cccc(-c2cc(-c3cc(C(F)(F)F)cc(-c4ccc(C(F)(F)F)cc4)n3)ccn2)c1` [Example 286, 3-[4-Trifluoromethyl-6-(4-trifluoromethyl-phenyl)-[2,4′]bipyridinyl-2′-yl]-benzenesulfonamide], for which the melting point is 227 °C (dec.).
`Cc1cc(-c2ccc(C(F)(F)F)cc2)cc(-c2ccnc(-c3cccc(S(=O)(=O)NC(C)(C)C)c3)c2)n1` [Example 287, N-tert-Butyl-3-[6-methyl-4-(4-trifluoromethyl-phenyl)-[2,4′]bipyridinyl-2′-yl]-benzenesulfonamide] returned a melting point of 189 °C.
Consider `Cc1cc(-c2ccc(C(F)(F)F)cc2)cc(-c2ccnc(-c3cccc(S(N)(=O)=O)c3)c2)n1` [Example 289, 3-[6-Methyl-4-(4-trifluoromethyl-phenyl)-[2,4′]bipyridinyl-2′-yl]-benzenesulfonamide], for which the melting point was greater than 250 °C.
`NS(=O)(=O)c1cncc(-c2cn(-c3cc(C(F)(F)F)cc(-c4ccc(C(F)(F)F)cc4)n3)cn2)c1` [Example 290, 5-{1-[4-Trifluoromethyl-6-(4-trifluoromethyl-phenyl)-pyridin-2-yl]-1H-imidazol-4-yl}-pyridine-3-sulfonic acid amide] had a melting point greater than 250 °C.
As for `CC(C)(CO)NS(=O)(=O)c1cccc(-c2cn(-c3cc(C(F)(F)F)cc(-c4ccc(C(F)(F)F)cc4)n3)cn2)c1` [Example 291, N-(2-Hydroxy-1,1-dimethyl-ethyl)-3-{1-[4-trifluoromethyl-6-(4-trifluoromethyl-phenyl)-pyridin-2-yl]-1H-imidazol-4-yl}-benzenesulfonamide], the figure is 150 °C (dec.); as for `Cc1cc(-c2ccc(C(F)(F)F)cc2)cc(-c2cncc(-c3cccc(S(N)(=O)=O)c3)c2)n1` [Example 295, 3-[6-Methyl-4-(4-trifluoromethyl-phenyl)-[2,3′]bipyridinyl-5′-yl]-benzenesulfonamide], 235 °C (dec.); as for `NS(=O)(=O)c1cccc(-c2cn(-c3cc(-c4ccc(C(F)(F)F)cc4)cc(C(F)(F)F)n3)cn2)c1` [Example 296, 3-{1-[6-Trifluoromethyl-4-(4-trifluoromethyl-phenyl)-pyridin-2-yl]-1H-imidazol-4-yl}-benzenesulfonamide], greater than 250 °C.
In the case of `Cc1cc(-c2ccc(C(F)(F)F)cc2)nc(-c2ccnc(-c3cccc(S(=O)(=O)NC(C)(C)C)c3)c2)c1` [Example 297, N-tert-Butyl-3-[4-methyl-6-(4-trifluoromethyl-phenyl)-[2,4′]bipyridinyl-2′-yl]-benzenesulfonamide], the melting point amounted to 189 °C.
As for `Cc1nc(-c2cn(-c3cc(-c4ccc(C(F)(F)F)cc4)cc(C(F)(F)F)n3)cn2)sc1S(=O)(=O)NC(C)(C)C` [Example 300, 4-Methyl-2-{1-[6-trifluoromethyl-4-(4-trifluoromethyl-phenyl)-pyridin-2-yl]-1H-imidazol-4-yl}-thiazole-5-sulfonic acid tert-butylamide], the melting point was 260 °C.
In turn, `CC(C)(C)NS(=O)(=O)c1ccc(-c2cn(-c3cc(-c4ccc(C(F)(F)F)cc4)cc(C(F)(F)F)n3)cn2)s1` [Example 301, 5-{1-[6-Trifluoromethyl-4-(4-trifluoromethyl-phenyl)-pyridin-2-yl]-1H-imidazol-4-yl}-thiophene-2-sulfonic acid tert-butylamide] gave a melting point greater than 250 °C.
Consider `CC(C)(C)NS(=O)(=O)c1cnc(-c2cn(-c3cc(-c4ccc(C(F)(F)F)cc4)cc(C(F)(F)F)n3)cn2)s1` [Example 302, 2-{1-[6-Trifluoromethyl-4-(4-trifluoromethyl-phenyl)-pyridin-2-yl]-1H-imidazol-4-yl}-thiazole-5-sulfonic acid tert-butylamide], for which the melting point was 252 °C.
`Cc1cc(-c2ccc(C(F)(F)F)cc2)cc(-c2ccnc(-c3ccc(S(=O)(=O)NC(C)(C)C)s3)n2)n1` [Example 303, 5-{4-[6-Methyl-4-(4-trifluoromethyl-phenyl)-pyridin-2-yl]-pyrimidin-2-yl}-thiophene-2-sulfonic acid tert-butylamide]: the melting point was 242 °C (dec.).
Take `Cc1cc(-c2ccc(C(F)(F)F)cc2)cc(-c2ccnc(-c3ccc(S(=O)(=O)NC(C)(C)C)s3)c2)n1` [Example 304, 5-[6-Methyl-4-(4-trifluoromethyl-phenyl)-[2,4′]bipyridinyl-2′-yl]-thiophene-2-sulfonic acid tert-butylamide]: the melting point was found to be 225 °C.
In the case of `Cc1cc(-c2ccc(C(F)(F)F)cc2)cc(-c2cccc(-c3ccc(S(=O)(=O)NC(C)(C)C)s3)n2)n1` [Example 305, 5-[6′-Methyl-4′-(4-trifluoromethyl-phenyl)-[2,2′]bipyridinyl-6-yl]-thiophene-2-sulfonic acid tert-butylamide], the melting point amounted to 227 °C.
Consider `Cc1cc(-c2ccc(C(F)(F)F)cc2)cc(-c2ccnc(-c3cccc(N)c3)c2)n1` [Example 307, 3-[6-Methyl-4-(4-trifluoromethyl-phenyl)-[2,4′]bipyridinyl-2′-yl]-phenylamine], for which the melting point was 162 °C (dec.).
In turn, `Cc1cc(-c2ccc(C(F)(F)F)cc2)nc(-c2ccnc(-c3cccc(S(N)(=O)=O)c3)n2)c1` [Example 308, 3-{4-[4-Methyl-6-(4-trifluoromethyl-phenyl)-pyridin-2-yl]-pyrimidin-2-yl}-benzenesulfonamide] showed a melting point greater than 250 °C.
Take `Cc1cc(-c2ccc(C(F)(F)F)cc2)nc(-c2ccnc(-c3cccc(S(N)(=O)=O)c3)c2)c1` [Example 309, 3-[4-Methyl-6-(4-trifluoromethyl-phenyl)-[2,4′]bipyridinyl-2′-yl]-benzenesulfonamide]: the melting point stood at 238 °C.

These data come from patent US8183262B2, “Pyridine derivatives as mGluR2 antagonists” (Hoffmann-La Roche Inc., priority 2007, dated 2012).
